Data on 16 compounds can be found in ChEMBL document CHEMBL1157433, “Design and synthesis of 4-HPR derivatives for rhabdoid tumors” (Bioorg Med Chem Lett, 2008).

Activity calls are given as the source filed them. The calls are words filed in the database; no cut-off is given here.

The nature of assay [1]: (§1) Cytotoxicity against human MON cells after 3 days by MTS assay. Format: functional, cell-based.
The test system of the next assay is MON. The assay is described as §1. Format: functional, cell-based.
Where [2] appears, read: Homo sapiens, MON, 72 h, read-out: IC50.

A word on the IC50: it is the concentration needed to halve the response being measured. Regarding `CC1=C(/C=C/C(C)=C/C=C/C(C)=C/C(=O)Nc2ccc(CCO)cc2)C(C)(C)CCC1`, the IC50 in assay [1] (setting [2]) is above 50 µM. As for `CC1=C(/C=C/C(C)=C/C=C/C(C)=C/C(=O)O)C(C)(C)CCC1` [TRETINOIN], the IC50 in assay [1] (setting [2]) turned out to be 100 µM. Take `CC1=C(/C=C/C(C)=C/C=C/C(C)=C/C(=O)Nc2ccc(O)c(Cl)c2)C(C)(C)CCC1`: the IC50 in assay [1] (setting [2]) is 12.5 µM. Take `CC1=C(/C=C/C(C)=C/C=C/C(C)=C/C(=O)Nc2ccc(CO)cc2)C(C)(C)CCC1`: the IC50 in assay [1] (setting [2]) turned out to be 25 µM. In the case of `CC1=C(/C=C/C(C)=C/C=C/C(C)=C/C(=O)Nc2ccc(O)c([N+](=O)[O-])c2)C(C)(C)CCC1`, the outcome in the assay on MON was inactive. On to `CC1=C(/C=C/C(C)=C/C=C/C(C)=C/C(=O)Nc2ccc(Br)cc2)C(C)(C)CCC1`, for which the IC50 in assay [1] (setting [2]) came out at 150 µM. Take `CC1=C(/C=C/C(C)=C/C=C/C(C)=C/C(=O)Nc2ccc(I)cc2)C(C)(C)CCC1`: the result in the assay with MON was inactive. Turning to `CC1=C(/C=C/C(C)=C/C=C/C(C)=C/C(=O)Nc2ccc(F)cc2)C(C)(C)CCC1`, in assay [1] (setting [2]), the IC50 is 150 µM. On to `CC1=C(/C=C/C(C)=C/C=C/C(C)=C/C(=O)Nc2ccc([N+](=O)[O-])cc2)C(C)(C)CCC1`, for which, in assay [1] (setting [2]), the IC50 was above 200 µM. Turning to `CC1=C(/C=C/C(C)=C/C=C/C(C)=C/C(=O)Nc2ccc(O)cc2)C(C)(C)CCC1` (stereo in doubt) [FENRETINIDE], the IC50 in assay [1] (mon, read-out: IC50) was 9 µM. As to `CC1=C(/C=C/C(C)=C/C=C/C(C)=C/C(=O)Nc2ccc(Cl)cc2)C(C)(C)CCC1`, in assay [1] (setting [2]), the IC50 is above 200 µM.

As to `CC1=C(/C=C/C(C)=C/C=C/C(C)=C/C(=O)Nc2ccc(O)c(F)c2)C(C)(C)CCC1`, the IC50 in assay [1] (setting [2]) came to 8 µM. Turning to `COc1ccc(NC(=O)/C=C(C)/C=C/C=C(C)/C=C/C2=C(C)CCCC2(C)C)cc1`, the IC50 result in assay [1] (mon) is given as “Not Active”.

Take `CC1=C(/C=C/C(C)=C/C=C/C(C)=C/C(=O)Nc2ccc(O)c(I)c2)C(C)(C)CCC1`: the IC50 in assay [1] (setting [2]) is 3 µM.

For the compound `CC1=C(/C=C/C(C)=C/C=C/C(C)=C/C(=O)Nc2ccc(O)cc2)C(C)(C)CCC1` (stereo in doubt; 5g) [FENRETINIDE], the IC50 in assay [1] (mon, read-out: IC50) stood at 19 µM. As to `CC1=C(/C=C/C(C)=C/C=C/C(C)=C/C(=O)Nc2ccc(O)cc2O)C(C)(C)CCC1`, the IC50 in assay [1] (setting [2]) came to 8 µM.
